Data: US7572797B2, “Amino substituted pyrazine derivatives for the treatment of pain” (Pfizer Inc., priority 2005, dated 2009)
Like-named read-outs stand apart in the source and are kept apart here.

Legend:
[1] = target: T1, Human Nav1.8 (Homo sapiens, UniProt Q9Y5Y9); assay: VIPR assay for Nav1.8 (FRET membrane potential, deltamethrin as opener); type: cell-based; settings: for IC50: HEK293 cells expressing human Nav1.8, average of replicates; for Selectivity Ratio: TTX-S IC50 / NaV1.8 IC50
T1 construct: expressed in transfected cells
T1 sequence (Q9Y5Y9 whole entry): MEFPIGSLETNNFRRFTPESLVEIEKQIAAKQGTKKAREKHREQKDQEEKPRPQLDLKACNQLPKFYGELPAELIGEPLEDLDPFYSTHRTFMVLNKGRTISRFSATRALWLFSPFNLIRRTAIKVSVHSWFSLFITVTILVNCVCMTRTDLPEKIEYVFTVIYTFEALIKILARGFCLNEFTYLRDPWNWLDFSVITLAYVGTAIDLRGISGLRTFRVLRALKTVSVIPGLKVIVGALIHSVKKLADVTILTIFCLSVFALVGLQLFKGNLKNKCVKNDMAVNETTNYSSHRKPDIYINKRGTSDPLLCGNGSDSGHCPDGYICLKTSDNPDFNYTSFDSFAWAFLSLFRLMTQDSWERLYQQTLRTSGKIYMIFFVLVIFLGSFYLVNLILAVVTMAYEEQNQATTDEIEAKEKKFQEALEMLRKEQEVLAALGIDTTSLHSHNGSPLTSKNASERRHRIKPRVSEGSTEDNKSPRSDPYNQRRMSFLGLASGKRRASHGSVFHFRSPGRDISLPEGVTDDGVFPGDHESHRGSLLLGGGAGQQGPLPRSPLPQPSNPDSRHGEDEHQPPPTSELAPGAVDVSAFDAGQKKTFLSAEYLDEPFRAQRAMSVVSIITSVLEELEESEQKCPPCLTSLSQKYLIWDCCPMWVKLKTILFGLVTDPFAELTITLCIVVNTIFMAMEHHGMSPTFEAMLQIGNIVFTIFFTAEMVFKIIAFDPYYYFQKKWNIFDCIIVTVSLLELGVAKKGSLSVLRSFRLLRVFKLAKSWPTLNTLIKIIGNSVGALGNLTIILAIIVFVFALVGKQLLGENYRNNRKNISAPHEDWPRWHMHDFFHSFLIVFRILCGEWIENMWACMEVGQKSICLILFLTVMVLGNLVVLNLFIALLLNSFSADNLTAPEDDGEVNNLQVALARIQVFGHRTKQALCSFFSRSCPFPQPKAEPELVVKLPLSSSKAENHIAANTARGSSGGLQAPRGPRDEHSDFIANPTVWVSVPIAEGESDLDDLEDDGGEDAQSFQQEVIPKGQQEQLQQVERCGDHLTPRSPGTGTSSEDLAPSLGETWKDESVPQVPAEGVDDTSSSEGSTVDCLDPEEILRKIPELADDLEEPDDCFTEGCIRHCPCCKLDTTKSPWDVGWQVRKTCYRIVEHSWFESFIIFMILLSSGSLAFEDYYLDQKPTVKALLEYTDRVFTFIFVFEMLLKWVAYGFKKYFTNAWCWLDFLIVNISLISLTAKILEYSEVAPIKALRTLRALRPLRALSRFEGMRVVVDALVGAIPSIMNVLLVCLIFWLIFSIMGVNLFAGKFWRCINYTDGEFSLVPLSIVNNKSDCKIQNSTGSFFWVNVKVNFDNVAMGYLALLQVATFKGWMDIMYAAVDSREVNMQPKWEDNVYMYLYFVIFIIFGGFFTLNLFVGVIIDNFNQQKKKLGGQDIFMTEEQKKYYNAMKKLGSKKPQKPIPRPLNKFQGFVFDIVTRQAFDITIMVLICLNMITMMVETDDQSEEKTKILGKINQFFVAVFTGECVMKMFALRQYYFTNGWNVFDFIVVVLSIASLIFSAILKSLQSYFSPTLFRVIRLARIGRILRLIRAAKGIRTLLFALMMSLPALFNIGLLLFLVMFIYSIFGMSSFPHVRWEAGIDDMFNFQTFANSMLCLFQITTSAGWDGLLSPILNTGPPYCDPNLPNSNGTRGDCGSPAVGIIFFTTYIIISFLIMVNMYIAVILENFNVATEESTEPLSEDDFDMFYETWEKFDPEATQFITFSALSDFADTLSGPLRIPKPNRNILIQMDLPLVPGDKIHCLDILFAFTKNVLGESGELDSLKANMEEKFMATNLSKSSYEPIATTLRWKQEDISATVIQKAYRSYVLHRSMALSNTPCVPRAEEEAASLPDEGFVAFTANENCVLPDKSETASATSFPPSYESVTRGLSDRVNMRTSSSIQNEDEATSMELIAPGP

[2] = system: tetrodotoxin-sensitive voltage-gated sodium channels including NaV1.2, NaV1.3 and NaV1.7 (SHSY-5Y cell line); assay: TTX-S assay in SHSY-5Y cell line (VIPR procedure, veratridine as opener); type: cell-based; settings: read-out: TTX-S IC50, SHSY-5Y cells, veratridine 50 μM, average of replicates
[3] = automated dissolution procedure

SMILES | IC50 ([1]; manual dissolution procedure) | Selectivity Ratio ([1]; manual dissolution procedure) | IC50 ([2]; manual dissolution procedure) | IC50 [1, 3] | Selectivity Ratio [1, 3] | IC50 [2, 3]
Cn1nccc1C(=O)Nc1cnc(-c2cc(Cl)cc(Cl)c2Cl)c(N)n1 [Example 1, N-[6-Amino-5-(2,3,5-trichlorophenyl)pyrazin-2-yl]-1-methyl-1H-pyrazole-5-carboxamide] | 0.988 µM | 11.4 | 11.2 µM | – | – | –
COc1ccc(Cl)c(-c2ncc(NC(=O)c3ccnn3C)nc2N)c1 [Example 2, N-[6-Amino-5-(2-chloro-5-methoxyphenyl)pyrazin-2-yl]-1-methyl-1H-pyrazole-5-carboxamide] | – | – | – | 3.24 µM | 11.8 | 38.3 µM
Cn1nccc1C(=O)Nc1cnc(-c2cc(Cl)cc3c2OCCO3)c(N)n1 [Example 3, N-[6-Amino-5-(7-chloro-2,3-dihydro-1,4-benzodioxin-5-yl)pyrazin-2-yl]-1-methyl-1H-pyrazole-5-carboxamide] | – | – | – | 15.2 µM | >1.89 | > 28.8 µM
Cn1nccc1C(=O)Nc1cnc(-c2cc(F)ccc2Cl)c(N)n1 [Example 4, N-[6-amino-5-(2-chloro-5-fluorophenyl)pyrazin-2-yl]-1-methyl-1H-pyrazole-5-carboxamide] | – | – | – | 8.73 µM | >3.46 | > 30.2 µM
Cn1nccc1C(=O)Nc1cnc(-c2cccc(Cl)c2Cl)c(N)n1 [Example 5, N-[6-amino-5-(2,3-dichlorophenyl)pyrazin-2-yl]-1-methyl-1H-pyrazole-5-carboxamide] | – | – | – | 6.14 µM | ->4.28 | > 26.3 µM
COc1cc(Cl)cc(-c2ncc(NC(=O)c3ccnn3C)nc2N)c1Cl [Example 6, N-[6-amino-5-(2,5-dichloro-3-methoxyphenyl)pyrazin-2-yl]-1-methyl-1H-pyrazole-5-carboxamide] | – | – | – | 4.71 µM | >4.25 | > 20 µM
Cn1nccc1C(=O)Nc1cnc(-c2cc(Cl)ccc2Cl)c(N)n1 [Example 7, N-[6-amino-5-(2,5-dichlorophenyl)pyrazin-2-yl]-1-methyl-1H-pyrazole-5-carboxamide] | 3.98 µM | 3.79 | 15.1 µM | 3.8 µM | 5.40 | 20.5 µM
Cn1nccc1C(=O)Nc1cnc(-c2cc(C#N)ccc2Cl)c(N)n1 [Example 11, N-[6-amino-5-(2-chloro-5-cyanophenyl)pyrazin-2-yl]-1-methyl-1H-pyrazole-5-carboxamide] | – | – | – | 4.47 µM | >6.76 | > 30.2 µM
COc1cc(Cl)c(Cl)c(-c2ncc(NC(=O)c3ccnn3C)nc2N)c1 [Example 12, N-[6-Amino-5-(2,3-dichloro-5-methoxyphenyl)pyrazin-2-yl]-1-methyl-1H-pyrazole-5-carboxamide] | – | – | – | 1.31 µM | 12.67 | 16.6 µM
COc1cc(Cl)cc(-c2ncc(NC(=O)c3cnoc3C)nc2N)c1Cl [Example 13, N-[6-amino-5-(2,5-dichloro-3-methoxyphenyl)pyrazin-2-yl]-5-methylisoxazole-4-carboxamide] | – | – | – | 10.4 µM | >2.48 | > 25.8 µM
Cc1oncc1C(=O)Nc1cnc(-c2cc(Cl)cc(Cl)c2Cl)c(N)n1 [Example 14, N-[6-amino-5-(2,3,5-trichlorophenyl)pyrazin-2-yl]-5-methylisoxazole-4-carboxamide] | 0.276 µM | 12.7 | 3.49 µM | 1.36 µM | 10.8 | 14.7 µM
COc1ccc(Cl)c(-c2ncc(NC(=O)c3cnoc3C)nc2N)c1 [Example 15, N-[6-amino-5-(2-chloro-5-methoxyphenyl)pyrazin-2-yl]-5-methylisoxazole-4-carboxamide] | – | – | – | > 30.2 µM | – | > 30.4 µM
Cc1nocc1C(=O)Nc1cnc(-c2ccccc2Cl)c(N)n1 [Example 16, N-[6-amino-5-(2-chlorophenyl)pyrazin-2-yl]-3-methylisoxazole-4-carboxamide] | – | – | – | 1.01 µM | >23.6 | > 24 µM
Cc1nocc1C(=O)Nc1cnc(-c2cccc(Cl)c2Cl)c(N)n1 [Example 17, N-[6-amino-5-(2,3-dichlorophenyl)pyrazin-2-yl]-3-methylisoxazole-4-carboxamide] | – | – | – | 0.425 µM | 29.4 | 12.5 µM
Cc1nocc1C(=O)Nc1cnc(-c2cc(Cl)cc(Cl)c2Cl)c(N)n1 [Example 18, N-[6-amino-5-(2,3,5-trichlorophenyl)pyrazin-2-yl]-3-methylisoxazole-4-carboxamide] | 0.417 µM | >72.0 | > 30 µM | – | – | –
Cc1nocc1C(=O)Nc1cnc(-c2cccc3ccccc23)c(N)n1 [Example 19, N-[6-amino-5-(1-naphthyl)pyrazin-2-yl]-3-methylisoxazole-4-carboxamide] | 4.72 µM | >6.36 | > 30 µM | – | – | –

SMILES | IC50 ([1]; manual dissolution procedure) | Selectivity Ratio ([1]; manual dissolution procedure) | IC50 ([2]; manual dissolution procedure) | IC50 [1, 3] | Selectivity Ratio [1, 3] | IC50 [2, 3]
Cc1nocc1C(=O)Nc1cnc(-c2cc(Cl)ccc2Cl)c(N)n1 [Example 20, N-[6-amino-5-(2,5-dichlorophenyl)pyrazin-2-yl]-3-methylisoxazole-4-carboxamide] | 0.188 µM | 66.5 | 12.5 µM | 0.511 µM | 18.00 | 9.2 µM
Cc1nocc1C(=O)Nc1cnc(-c2cc(Cl)cc3c2OCCO3)c(N)n1 [Example 21, N-[6-amino-5-(7-chloro-2,3-dihydro-1,4-benzodioxin-5-yl)pyrazin-2-yl]-3-methylisoxazole-4-carboxamide] | – | – | – | 4.81 µM | 4.35 | 20.9 µM
Cc1nonc1C(=O)Nc1cnc(-c2cc(Cl)ccc2Cl)c(N)n1 [Example 23, N-[6-amino-5-(2,5-dichlorophenyl)pyrazin-2-yl]-4-methyl-1,2,5-oxadiazole-3-carboxamide] | – | – | – | 8.04 µM | >3.54 | > 28.5 µM
COc1ccc(Cl)c(-c2ncc(NC(=O)c3conc3C)nc2N)c1 [Example 28, N-[6-amino-5-(2-chloro-5-methoxyphenyl)pyrazin-2-yl]-3-methylisoxazole-4-carboxamide] | – | – | – | 2.61 µM | 9.81 | 25.6 µM
COc1ccc(Cl)c(-c2ncc(NC(=O)c3nonc3C)nc2N)c1 [Example 29, N-[6-amino-5-(2-chloro-5-methoxyphenyl)pyrazin-2-yl]-4-methyl-1,2,5-oxadiazole-3-carboxamide] | – | – | – | 7.97 µM | >3.69 | > 29.4 µM
COc1ccc(Cl)c(-c2ncc(NC(=O)c3cnoc3C(C)C)nc2N)c1 [Example 30, N-[6-amino-5-(2-chloro-5-methoxyphenyl)pyrazin-2-yl]-5-isopropylisoxazole-4-carboxamide] | – | – | – | 3.63 µM | >8.15 | > 29.6 µM
CCc1noc(C)c1C(=O)Nc1cnc(-c2cc(OC)ccc2Cl)c(N)n1 [Example 31, N-[6-amino-5-(2-chloro-5-methoxyphenyl)pyrazin-2-yl]-3-ethyl-5-methylisoxazole-4-carboxamide] | – | – | – | 5.38 µM | >5.22 | > 28.1 µM
COc1ccc(Cl)c(-c2ncc(NC(=O)c3ccno3)nc2N)c1 [Example 32, N-[6-amino-5-(2-chloro-5-methoxyphenyl)pyrazin-2-yl]isoxazole-5-carboxamide] | – | – | – | 6.12 µM | >4.93 | > 30.2 µM
COc1ccc(Cl)c(-c2ncc(NC(=O)c3cnoc3)nc2N)c1 [Example 33, N-[6-amino-5-(2-chloro-5-methoxyphenyl)pyrazin-2-yl]isoxazole-4-carboxamide] | – | – | – | > 22.7 µM | ->1.33 | > 30.2 µM
COCCn1nccc1C(=O)Nc1cnc(-c2cc(OC)ccc2Cl)c(N)n1 [Example 34, N-[6-amino-5-(2-chloro-5-methoxyphenyl)pyrazin-2-yl]-1-(2-methoxyethyl)-1H-pyrazole-5-carboxamide] | – | – | – | 15.6 µM | – | > 30.2 µM
COc1ccc(Cl)c(-c2ncc(NC(=O)c3c(C)noc3C)nc2N)c1 [Example 36, N-[6-amino-5-(2-chloro-5-methoxyphenyl)pyrazin-2-yl]-3,5-dimethylisoxazole-4-carboxamide] | – | – | – | 13.9 µM | >2.18 | > 30.2 µM
COc1ccc(Cl)c(-c2ncc(NC(=O)c3ccon3)nc2N)c1 [Example 37, N-[6-amino-5-(2-chloro-5-methoxyphenyl)pyrazin-2-yl]isoxazole-3-carboxamide] | – | – | – | > 29.4 µM | – | > 30.2 µM
CCCc1oncc1C(=O)Nc1cnc(-c2cc(OC)ccc2Cl)c(N)n1 [Example 38, N-[6-amino-5-(2-chloro-5-methoxyphenyl)pyrazin-2-yl]-5-propylisoxazole-4-carboxamide] | – | – | – | > 30.2 µM | – | > 30.4 µM
Cc1oncc1C(=O)Nc1cnc(-c2cc(Cl)cc3c2OCCO3)c(N)n1 [Example 39, N-[6-amino-5-(7-chloro-2,3-dihydro-1,4-benzodioxin-5-yl)pyrazin-2-yl]-5-methylisoxazole-4-carboxamide] | – | – | – | 5.45 µM | >3.25 | > 17.7 µM
Cc1nonc1C(=O)Nc1cnc(-c2cc(Cl)cc3c2OCCO3)c(N)n1 [Example 41, N-[6-amino-5-(7-chloro-2,3-dihydro-14-benzodioxin-5-yl)pyrazin-2-yl]-4-methyl-1,2,5-oxadiazole-3-carboxamide] | – | – | – | 12.7 µM | >2.22 | > 28.2 µM
Nc1nc(NC(=O)c2ccon2)cnc1-c1cc(Cl)cc2c1OCCO2 [Example 43, N-[6-amino-5-(7-chloro-2,3-dihydro-1,4-benzodioxin-5-yl)pyrazin-2-yl]isoxazole-3-carboxamide] | – | – | – | > 21.1 µM | ->1.43 | > 30.1 µM
